Reference: ChEMBL document CHEMBL5576160, “N-Substituted Pyrrole-Based Heterocycles as Broad-Spectrum Filoviral Entry Inhibitors” (J Med Chem, 2024)

Legend:
[1] = tested on: Ebolavirus; assay: Antiviral activity against pseudotyped EBOV Mayinga infected in human A549 cells assessed as inhibition of Pseudoviral entry incubated for 40 hrs; format: functional, organism-based; conditions: Orthoebolavirus, A549, 40 h
[2] = Selectivity index, ratio of CC50 for cytotoxicity against human A549 cells to EC50 for antiviral activity against pseudotyped EBOV Mayinga infected in human A549 cells assessed as inhibition of Pseudoviral entry; format: toxicity, cell-based; conditions: read-out: Ratio CC50/EC50
[3] = tested on: Marburgvirus; assay: Antiviral activity against pseudotyped Marburgvirus Angola infected in human A549 cells assessed as inhibition of Pseudoviral entry incubated for 40 hrs; format: functional, organism-based; conditions: Orthomarburgvirus, A549, 40 h
[4] = Selectivity index, ratio of CC50 for cytotoxicity against human A549 cells to EC50 for antiviral activity against pseudotyped Marburgvirus Angola infected in human A549 cells assessed as inhibition of Pseudoviral entry; format: toxicity, cell-based; conditions: read-out: Ratio CC50/EC50
[5] = tested on: A549; assay: Cytotoxicity against human A549 cells assessed as as reduction in cell viability incubated for 48 hrs by celltiter-glo assay; format: functional
[6] = tested on: Sudan ebolavirus; assay: Antiviral activity against pseudotyped Sudan ebolavirus Gulu infected in human A549 cells assessed as inhibition of viral growth; format: functional, organism-based
[7] = tested on: Bundibugyo virus; assay: Antiviral activity against pseudotyped Bundibugyo virus infected in human A549 cells assessed as inhibition of viral growth; format: functional, organism-based
[8] = tested on: Tai Forest ebolavirus; assay: Antiviral activity against pseudotyped Tai Forest ebolavirus infected in human A549 cells assessed as inhibition of viral growth; format: functional, organism-based
[9] = tested on: Ebolavirus; assay: Antiviral activity against EBOV Mayinga infected in human HeLa cells assessed as inhibition of viral replication incubated for 40 hrs; format: functional, organism-based; conditions: Orthoebolavirus
[10] = tested on: Sudan ebolavirus; assay: Antiviral activity against pseudotyped Sudan ebolavirus Gulu infected in human HeLa cells assessed as inhibition of viral replication; format: functional, organism-based
[11] = tested on: Marburgvirus; assay: Antiviral activity against Marburgvirus Angola infected in human Huh-7 cells assessed as inhibition of viral replication; format: functional, organism-based; conditions: Orthomarburgvirus
[12] = Stability in human plasma measured after 60 mins; format: ADME, cell-free; conditions: read-out: Stability
[13] = Stability in mouse plasma measured after 60 mins; format: ADME, cell-free; conditions: read-out: Stability

SMILES	EC50 [1]	selectivity ratio [2]	EC50 [3]	selectivity ratio [4]	CC50 [5]	EC50 [6]	EC50 [7]	EC50 [8]	EC50 [9]	EC50 [10]	EC50 [11]	remaining at 1 h [12]	remaining at 1 h [13]
CN1CCCN(C(=O)c2cc3occc3n2Cc2ccc(Cl)cc2)CC1	1410 nM	71	10.5 µM	9.6									
O=C(c1cc2sccc2n1Cc1ccc(Cl)cc1)N1CCN(C2CCCCC2)CC1	10900 nM	4.9	13.9 µM	3.8									
CN(C)C1CCN(C(=O)c2cc3ccccc3n2Cc2cccnc2)CC1	5300 nM	> 19	38.6 µM	2.6									
CN1CCN(C(=O)c2cc3sccc3n2Cc2ccc(Cl)cc2)CC1	9750 nM	10	24.7 µM	4.1									
CN(C)C1CCN(C(=O)c2cn(Cc3ccc(F)cc3)c3ccccc23)CC1	2540 nM	30	10.9 µM	6.9									
CCOc1ncc(NC(=O)c2cc3occc3n2Cc2ccc(Cl)cc2)cc1F	2430 nM	41	> 100 µM	1	> 100 µM								
CN(C)CCNC(=O)c1cc2occc2n1Cc1cccc(C(F)(F)F)c1	1680 nM	32	4.29 µM	13									
CN(C)C1CCN(C(=O)c2cc3ccccc3n2Cc2ccc(F)cc2)CC1	453 nM	100	4.99 µM	13		554 nM	353 nM	2.7 µM	> 20000 nM	1.01 µM	> 20 µM		
CN(C)CCNC(=O)c1cc2occc2n1C(=O)OCc1ccccc1	8110 nM	> 12	31.1 µM	> 3.1									
O=C(Nc1ccc(N2CCOCC2)cc1)c1cc2occc2n1Cc1ccc(Cl)cc1	> 100000 nM	1	> 100 µM	1	> 100 µM								
CN(C)CCNC(=O)c1cc2occc2n1Cc1ccc(Cl)c(C(F)(F)F)c1	1900 nM	17	3.16 µM	10									
COc1ccc(Cn2c(C(=O)N3CCC(N(C)C)CC3)cc3ccccc32)cc1	543 nM		7.84 µM	13	~100 µM	1230 nM	1390 nM	5.28 µM	854 nM	~20 µM	4.29 µM		
O=C(NCCN1CCC1)c1cc2occc2n1Cc1cccc(C(F)(F)F)c1	1940 nM	20	6.22 µM	6.2									
O=C(Nc1ccc(N2CCC(F)(F)CC2)cc1)c1cc2occc2n1Cc1ccc(Cl)cc1	11700 nM	8.6	> 100 µM	1	> 100 µM	2390 nM	36400 nM	> 100 µM					
CN(C)C1CCN(C(=O)c2cc3ccccc3n2Cc2ccncc2)CC1	162000 nM	> 6.2	3.78 µM	27									
CN(C)C1CCN(C(=O)CN(Cc2ccccc2)c2ccccc2)CC1	10700 nM	9.4	> 100 µM	< 1									
CN(C)CCNC(=O)c1cc2ccccc2n1Cc1ccccc1	2740 nM	24	6.8 µM	9.5									
CC1CCN(c2ccc(NC(=O)c3cc4occc4n3Cc3ccc(Cl)cc3)cc2C(F)(F)F)CC1	4030 nM	25	13.6 µM	7.4	> 100 µM								
CN(C)CCNC(=O)c1cn(Cc2ccc(F)cc2)c2ccccc12	3000 nM	21	6.47 µM	8.9									
CN(C)C1CCN(C(=O)c2cc3occc3n2Cc2ccc(F)cc2)CC1	3930 nM	> 25	11.4 µM	> 8.8									
CN(C)C1CCN(C(=O)c2cc3occc3n2C(=O)OCc2ccccc2)CC1	1680 nM	> 60	29.8 µM	> 3.4									
CN(C)C1CCN(C(=O)c2cc3ccccc3n2Cc2ccc(-c3ccccc3)cc2)CC1	1060 nM	14	1.99 µM	7.2									
CN(C)CCNC(=O)c1cc2occc2n1Cc1ccc(F)cc1	2620 nM	> 38	10.8 µM	> 93									
CN(C)CCNC(=O)c1cn(Cc2ccccc2)c2ccccc12	3280 nM	21	11.1 µM	6.1									

SMILES	EC50 [1]	selectivity ratio [2]	EC50 [3]	selectivity ratio [4]	CC50 [5]	EC50 [6]	EC50 [7]	EC50 [8]	EC50 [9]	EC50 [10]	EC50 [11]	remaining at 1 h [12]	remaining at 1 h [13]
O=C(c1cc2ccccc2n1Cc1ccccc1)N1CCCCC1	9110 nM	11	> 100 µM	11									
CN(C)C1CCN(C(=O)c2cc3sccc3n2Cc2ccc(Cl)cc2)CC1	899 nM	61	3.7 µM	15		1010 nM	1900 nM	4.14 µM					
CC(C)N1CCN(C(=O)c2cc3occc3n2Cc2cccc(C(F)(F)F)c2)CC1	3430 nM	29	22.2 µM	4.4									
CN(C)C1CCN(C(=O)c2cccn2Cc2ccccc2)CC1	1110 nM	90	17.8 µM	5.6									
CN(C)C1CCN(C(=O)c2cc3ccccc3n2Cc2ccccc2)CC1	550 nM	~180	9.53 µM	9.6	~100 µM							100%	100%
CN(C)CCCNC(=O)c1cc2occc2n1Cc1ccc(Cl)cc1	2010 nM	36	5.52 µM	13									
CN(C)C1CCN(C(=O)c2cc3ccccc3n2Cc2ccc(Cl)cc2)CC1	1380 nM	44	6.83 µM	< 1		884 nM		4.95 µM					
CCN(CC)CCNC(=O)c1cc2occc2n1Cc1ccc(Cl)cc1	1610 nM	38	3.67 µM	17									
CN(C)C1CCN(C(=O)c2cc3ccccc3n2C)CC1	16500 nM	> 6.1	> 100 µM	< 1									
CN(C)CCNC(=O)c1cc2ccccc2n1Cc1ccc(F)cc1	3390 nM	16	4.21 µM	8.9									
CC(C)N1CCN(C(=O)c2cc3sccc3n2Cc2ccc(Cl)cc2)CC1	5840 nM	17	32.8 µM	3.1									
O=C(NCCCn1ccnc1)c1cc2occc2n1Cc1cccc(C(F)(F)F)c1	4320 nM	13	9.78 µM	5.9									
CN1CCCN(C(=O)c2cc3sccc3n2Cc2ccc(Cl)cc2)CC1	4160 nM	24	10.8 µM	9.3									
CN(C)CCNC(=O)c1cc2occc2n1Cc1ccccc1	4510 nM	22	25.6 µM	3.9									
CN(C)CCNC(=O)c1cc2ccccc2n1Cc1ccc(-c2ccccc2)cc1	2770 nM	5.9	3.1 µM	14									
CN(C)CCNC(=O)c1cc2sccc2n1Cc1ccc(Cl)cc1	2170 nM	19	3.14 µM	13									
CN1CCCN(C(=O)c2cc3occc3n2Cc2cccc(C(F)(F)F)c2)CC1	1730 nM	40	8.64 µM	8.1									
CN(C)CCNC(=O)c1cc2ccccc2n1Cc1ccc(Cl)cc1	3490 nM	8.4	3.92 µM	7.5		834 nM	2660 nM	3.74 µM					
CN(C)C1CCN(C(=O)c2cc3occc3n2Cc2cccc(C(F)(F)F)c2)CC1	1500 nM	67	9.72 µM	10	~100 µM								
CN(C)CC1CN(C(=O)c2cc3occc3n2Cc2ccc(Cl)cc2)C1	1230 nM	46	4.57 µM	12									
CN(C)CCNC(=O)c1cc2occc2n1C	> 100000 nM	1	> 100 µM	1									
O=C(NCCCn1ccnc1)c1cc2occc2n1Cc1ccc(Cl)cc1	6240 nM	16	13.2 µM	7.6									
CN1CCN(CCCNC(=O)c2cc3occc3n2Cc2ccc(Cl)cc2)CC1	1860 nM	42	7.7 µM	10									
